Some test systems named below: A549; U-251; ACHN; Hs-578T; SR; DU-145; MDA-MB-435; HOP-92; SNB-19; MDA-MB-231; BT-549; A498; MDA-N; Malme-3M; SK-MEL-2; NCI-H460.
Holding throughout (experiment): NCI anticancer screen, dose series, 48 h

Consider 13 compounds from ChEMBL document CHEMBL1201862, “PubChem BioAssay data set” (2004).

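These data come from cells grown in 96-well plates and exposed to compound for 48 hours at five concentrations. GI50 is the concentration that inhibits growth by half.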 The source made the active and inactive calls. Cut-off read from the data, not from the text of the source: active = GI50 up to about 1.1 µM and inactive = higher.

On to `Cc1cc(Cc2cc(Cc3cc(C)cc(C(C)(C)C)c3O)c(C)cc2C)c(O)c(C(C)(C)C)c1`, for which the GI50 with A549 is 15.4 µM (inactive); in the test with U-251, > 100 µM (inactive); in the test on ACHN, 16.1 µM (inactive); in the test on Hs-578T, 17.5 µM (inactive); in the test with SR, 29.2 µM (inactive); with DU-145, 14.5 µM (inactive). The GI50 in the test with MDA-MB-435 was 13 µM (inactive); in the test on HOP-92, 13.2 µM (inactive); with SNB-19, 17.2 µM (inactive); with MDA-MB-231, > 100 µM (inactive); with BT-549 it was 17.5 µM (inactive); in the test with A498, 16.1 µM (inactive). Further, the GI50 was 18.6 µM (inactive) in the test with MDA-N, 12.5 µM (inactive) in the test on Malme-3M and > 100 µM (inactive) in the test on SK-MEL-2.

`CCOC(=O)c1cc2c([N+](=O)[O-])c(NC(C)=O)ccc2s1`: the GI50 in the test with A549 was 50.2 µM (inactive); in the test on U-251, 44.6 µM (inactive); with NCI-H460, > 100 µM (inactive); with ACHN, 41.7 µM (inactive); in the test on Hs-578T it was 37.8 µM (inactive); with DU-145, 49 µM (inactive). For the same compound, the GI50 was 76.4 µM (inactive) with MDA-MB-435; 44.8 µM (inactive) in the test with HOP-92; > 100 µM (inactive) in the test with SNB-19; 24.1 µM (inactive) in the test with MDA-MB-231; 72.1 µM (inactive) with BT-549; 29.9 µM (inactive) in the test with A498. For the same compound, the GI50 in the test with MDA-N was 81.8 µM (inactive); with Malme-3M, 28.2 µM (inactive); in the test with SK-MEL-2 it was > 100 µM (inactive).

For `CN(O)C(=O)CCCC(=O)NCC(C)(C)CNC(=O)CCCC(=O)N(C)O`, the GI50 in the test on A549, with U-251, with NCI-H460, in the test on ACHN, with Hs-578T and with SR was > 100 µM (inactive) in each case. For the same compound, the GI50 in the test on DU-145, in the test on MDA-MB-435, in the test with HOP-92, in the test with SNB-19, in the test with MDA-MB-231 and in the test with A498 was > 100 µM (inactive) throughout. Besides, the GI50 in the test on MDA-N, with Malme-3M and with SK-MEL-2 was > 100 µM (inactive) in each case.

Regarding `O=C(CSCC(=O)N/N=C/c1cc(I)cc(I)c1O)N/N=C/c1cc(I)cc(I)c1O`, the GI50 in the test on A549 was 27.4 µM (inactive); in the test with U-251, 6.61 µM (inactive); in the test with NCI-H460, 25.6 µM (inactive); in the test on ACHN, 11.9 µM (inactive); in the test on Hs-578T it was 6.78 µM (inactive); in the test with SR, 3.54 µM (inactive). Moreover, the GI50 was 17.7 µM (inactive) in the test with DU-145; 25.4 µM (inactive) in the test on MDA-MB-435; 39.5 µM (inactive) in the test on HOP-92; 10.5 µM (inactive) in the test with SNB-19; 7.18 µM (inactive) in the test with MDA-MB-231; 9.04 µM (inactive) in the test with A498. The results for the GI50 with Malme-3M and in the test with SK-MEL-2 were 18.1 µM (inactive) and 23.7 µM (inactive), respectively.

Regarding `c1cc2nnc1SCCCSc1ccc(nn1)SCCCS2`, the GI50 in the test on A549 was 41.6 µM (inactive); in the test on U-251, 17.3 µM (inactive); in the test with ACHN, > 43.7 µM (inactive); in the test with Hs-578T it was 26.5 µM (inactive); in the test on SR, > 26 µM (inactive); in the test with DU-145 it was > 48 µM (inactive). The GI50 is > 40.6 µM (inactive) in the test with MDA-MB-435; 38.4 µM (inactive) in the test with HOP-92; 33.1 µM (inactive) in the test with SNB-19; 30 µM (inactive) with MDA-MB-231; 19.9 µM (inactive) with BT-549; 97.7 µM (inactive) with A498. Besides, the GI50 in the test with MDA-N is > 29.9 µM (inactive); with Malme-3M it was > 48.8 µM (inactive); in the test on SK-MEL-2, 24.7 µM (inactive).

Take `O=C1/C(=C/c2ccccc2)NC(=S)N1CN1CCOCC1`: the GI50 in the test with A549, with U-251, in the test with ACHN, in the test on Hs-578T, in the test on SR and with DU-145 was > 100 µM (inactive) in each case. For the same compound, the GI50 in the test on MDA-MB-435 was > 100 µM (inactive); in the test with HOP-92, > 100 µM (inactive); with SNB-19, > 100 µM (inactive); in the test with MDA-MB-231, > 100 µM (inactive); in the test on A498, 82.2 µM (inactive); in the test on MDA-N, > 100 µM (inactive). For the same compound, the GI50 with Malme-3M and with SK-MEL-2 was > 100 µM (inactive) in each case.

On to `O=[N+]([O-])C(/C=C(\Cl)[N+](=O)[O-])=C1Nc2ccccc2N1`, for which the GI50 is > 100 µM (inactive) in the test on A549; 43.3 µM (inactive) with U-251; > 100 µM (inactive) in the test on NCI-H460; 44.4 µM (inactive) with ACHN; 48.9 µM (inactive) in the test with Hs-578T; 29.6 µM (inactive) with SR. Moreover, the GI50 in the test on DU-145 was > 100 µM (inactive); in the test on MDA-MB-435, 42.6 µM (inactive); in the test with HOP-92 it was 18.3 µM (inactive); in the test with SNB-19, 75.5 µM (inactive); with MDA-MB-231, 36.7 µM (inactive); in the test on BT-549 it was 42 µM (inactive). In addition, the values for the GI50 in the test with A498, in the test with MDA-N and in the test with Malme-3M were 24.8 µM (inactive), 59.8 µM (inactive) and 42.2 µM (inactive), respectively.

For the compound `C=CCN1C(=O)/C(=C/c2ccc(OC)cc2)NC1=S`, the GI50 with A549 is 34.8 µM (inactive); with U-251, 82.2 µM (inactive); with NCI-H460, > 100 µM (inactive); in the test on ACHN, > 100 µM (inactive); in the test with Hs-578T, > 100 µM (inactive); in the test with SR it was 29.3 µM (inactive). The GI50 is > 100 µM (inactive) with DU-145; 57.3 µM (inactive) in the test on MDA-MB-435; 14.5 µM (inactive) with HOP-92; > 100 µM (inactive) in the test with SNB-19; > 100 µM (inactive) in the test on MDA-MB-231; 50.2 µM (inactive) with BT-549. For the same compound, the GI50 with A498 is 60.4 µM (inactive); with MDA-N it was 33.8 µM (inactive); in the test with SK-MEL-2 it was > 100 µM (inactive).

With `C=CCc1cccc2cc(C(N)=O)c(=N)oc12`, the GI50 in the test with A549 is > 100 µM (inactive); with U-251 it was > 100 µM (inactive); in the test with NCI-H460, > 100 µM (inactive); in the test with ACHN it was 61.9 µM (inactive); in the test with Hs-578T it was > 10 µM (inactive); in the test on SR, 40.6 µM (inactive). Moreover, the GI50 with DU-145 is > 100 µM (inactive); in the test on MDA-MB-435, 95.7 µM (inactive); in the test on HOP-92 it was 68.7 µM (inactive); in the test on SNB-19, > 100 µM (inactive); in the test with MDA-MB-231, > 100 µM (inactive); in the test with BT-549, > 100 µM (inactive). In addition, the GI50 with A498 is 77.3 µM (inactive); in the test with MDA-N, > 100 µM (inactive); in the test on SK-MEL-2 it was 99.5 µM (inactive).

For the compound `Cc1nc2cccc(F)c2c(=O)n1C1CCCCNC1=O` (stereo unspecified), the GI50 with A549, in the test with U-251, in the test on NCI-H460, in the test on ACHN, in the test on Hs-578T and with SR was > 10 µM (inactive) in each case. Besides, the GI50 in the test with DU-145, with MDA-MB-435, in the test on HOP-92, with SNB-19, with MDA-MB-231 and with MDA-N was > 10 µM (inactive) each time. In addition, in the test with SK-MEL-2, the GI50 is > 10 µM (inactive).

For `C=C(C)C(=O)O[C@H]1C[C@@]23O[C@@H]2CCC(=C[C@H]2OC(=O)C(=C)[C@H]12)COC3O` (stereo partly specified), the GI50 is > 100 µM (inactive) in the test with A549; > 100 µM (inactive) in the test with U-251; > 100 µM (inactive) in the test on NCI-H460; 39.9 µM (inactive) with ACHN; > 100 µM (inactive) in the test with Hs-578T; 24.7 µM (inactive) in the test with SR. Further, the GI50 with DU-145 was > 100 µM (inactive); in the test on MDA-MB-435 it was 44.3 µM (inactive); with HOP-92, 21.9 µM (inactive); in the test with SNB-19 it was > 100 µM (inactive); in the test on MDA-MB-231, > 100 µM (inactive); with BT-549, 37.1 µM (inactive). Further, the GI50 with A498 is > 100 µM (inactive); in the test on MDA-N it was 49.2 µM (inactive); in the test on SK-MEL-2, 70.3 µM (inactive).

In the case of `Cc1cccc(/C=C2\CCCc3ccccc3C2=O)c1`, the GI50 with A549 was 24.2 µM (inactive); with U-251, 18.6 µM (inactive); in the test on NCI-H460, 16.8 µM (inactive); in the test with ACHN, 26.5 µM (inactive); in the test on Hs-578T it was 15.8 µM (inactive); in the test with SR, 15 µM (inactive). Moreover, the GI50 in the test on DU-145 is 28.6 µM (inactive); with MDA-MB-435, 17 µM (inactive); in the test with HOP-92 it was 15 µM (inactive); in the test with SNB-19, 24.4 µM (inactive); with MDA-MB-231, 18.5 µM (inactive); in the test with BT-549 it was 24.3 µM (inactive). The GI50 in the test with MDA-N was 19.8 µM (inactive); with Malme-3M, 18.1 µM (inactive); in the test with SK-MEL-2, 16.7 µM (inactive).

Consider `CN(C)CCNC(=O)c1ccc(NCCCN(C)CCCNc2ccc(C(=O)NCCN(C)C)c3nc4ccccc4c(O)c23)c2c(O)c3ccccc3nc12`, for which the GI50 is < 0.01 µM (active) in the test with A549; < 0.01 µM (active) with U-251; < 0.01 µM (active) in the test with NCI-H460; 0.0466 µM (active) in the test on ACHN; 0.0223 µM (active) with Hs-578T; < 0.01 µM (active) in the test with SR. For the same compound, the GI50 is < 0.0114 µM (active) in the test on DU-145; 0.0101 µM (active) in the test on MDA-MB-435; 0.234 µM (active) in the test with HOP-92; < 0.01 µM (active) in the test on SNB-19; 0.111 µM (active) in the test with MDA-MB-231; 0.254 µM (active) with BT-549. The GI50 was 0.13 µM (active) in the test on A498, < 0.0153 µM (active) with Malme-3M and < 0.0211 µM (active) in the test with SK-MEL-2.
